# Biological target: T1, STAT6 (Homo sapiens, UniProt P42226)
# T1 construct: stably transfected HaCaT keratinocyte cell line, which expresses NanoLuc luciferase reporter gene under the transcriptional control of the STAT6 responsive promoter; endogenous in cells; host or cells: HaCaT keratinocyte reporter cell line (stably transfected with a NanoLuc reporter)
# T1 sequence (P42226 1-847): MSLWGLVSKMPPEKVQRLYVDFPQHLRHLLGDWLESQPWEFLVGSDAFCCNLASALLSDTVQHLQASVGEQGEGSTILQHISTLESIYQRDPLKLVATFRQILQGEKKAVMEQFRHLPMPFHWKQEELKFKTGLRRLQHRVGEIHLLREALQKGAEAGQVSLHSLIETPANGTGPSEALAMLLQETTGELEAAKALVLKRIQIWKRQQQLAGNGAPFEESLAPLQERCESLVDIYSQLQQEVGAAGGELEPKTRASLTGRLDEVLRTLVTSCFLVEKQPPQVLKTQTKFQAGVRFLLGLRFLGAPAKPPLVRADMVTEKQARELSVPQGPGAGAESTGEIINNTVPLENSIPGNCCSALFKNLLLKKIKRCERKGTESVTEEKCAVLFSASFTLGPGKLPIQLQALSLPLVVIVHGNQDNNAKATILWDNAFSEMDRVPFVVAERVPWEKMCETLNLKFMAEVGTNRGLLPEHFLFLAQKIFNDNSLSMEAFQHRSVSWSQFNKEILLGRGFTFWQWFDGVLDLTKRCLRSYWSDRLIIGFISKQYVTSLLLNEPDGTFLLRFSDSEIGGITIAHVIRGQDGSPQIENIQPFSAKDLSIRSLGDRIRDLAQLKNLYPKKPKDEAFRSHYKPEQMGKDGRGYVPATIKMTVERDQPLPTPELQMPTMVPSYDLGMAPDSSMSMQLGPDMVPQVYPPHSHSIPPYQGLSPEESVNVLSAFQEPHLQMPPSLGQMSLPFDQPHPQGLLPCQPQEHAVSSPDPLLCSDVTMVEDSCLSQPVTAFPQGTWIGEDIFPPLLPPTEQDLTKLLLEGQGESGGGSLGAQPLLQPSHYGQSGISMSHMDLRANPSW
# Assay: STAT6 Reporter Luciferase Assay (IL-13 stimulated HaCaT keratinocyte NanoLuc reporter cells)
# Assay type: cell-based
# Conditions: IL-13 stimulated HaCaT STAT6 NanoLuc reporter cells; read-out: Reporter EC50
# Method: Pharmacological measurements of STAT6 transcriptional activity through the IL-13-IL-13 receptor/IL-4 receptor pathway were made with a stably transfected HaCaT keratinocyte cell line, which expresses NanoLuc luciferase reporter gene under the transcriptional control of the STAT6 responsive promoter for IL-13Ra2. The readout of the STAT6 activity utilized Promega Nano-Glo Luciferase assay kit.
# The reporter cells were cultured in a growth media comprised of DMEM High Glucose, no calcium and no glutamine, 10% heat inactivated fetal bovine serum (HI FBS), 1% 100× Glutamax, and 100 U/mL Penicillin-Streptomycin (units of penicillin in 1 mL of streptomycin). Seven thousand cells were plated in 25 microliter (μL) per well in a 384-well, white bottom, tissue culture plate. Cells were cultured overnight at 37° C. The next day, test compounds (solubilized and serially diluted in DMSO, in an 11 point, 4-fold dilution series in duplicate) were spotted, 60 nanoliters (nL) per well, into a 384 well v-bottom polypropylene plate. Thirty μL per well of 37° C. dosing media (Dulbecco's modified eagle medium (DMEM) High Glucose, no calcium and no glutamine with 2% HI FBS) was added to the compound plate. Growth media was removed from the cell plate, and the cells were washed with DPBS. Twenty μL per well of compounds diluted in dosing media were transferred from the compound plate to the cell plate and the compounds were further diluted with an additional 15 μL of dosing media in the cell plate: the cell plate was incubated for two hours at 37° C. After two hours, STAT6 activity was stimulated with the addition of 5 μL per well of IL-13 (R&D Systems) in dosing media with a final concentration of 0.12 nM IL13. Cells were incubated at 37° C. for 4 hours to allow for reporter gene expression, then all media was removed from the plate. The cell plates were treated with assay buffer and Luciferase substrate from Nano-Glo Luciferase Assay Kit for 15 min and then measured for luminescence on an EnVision 2105 multilabel reader (PerkinElmer).
row,EC50 [µM],SMILES
1,0.401,"COCC1CCN(C(=O)c2ccc(N3CCc4c(c(C(=O)NCc5ccc(NC(=O)N(C)C)cc5)nn4C(C)C)C3)nc2)C1 (racemic) [Example 194, rac-(R)-N-(4-(3,3-dimethylureido)benzyl)-1-isopropyl-5-(5-(3-(methoxymethyl)pyrrolidine-1-carbonyl)pyridin-2-yl)-4,5,6,7-tetrahydro-1H-pyrazolo[4,3-c]pyridine-3-carboxamide]"
2,0.21,"CC(C)n1nc(C(=O)NCc2ccc(NC(=O)N(C)C)cc2)c2c1CCN(c1ccc(C(=O)N3CCC(O)C3)cn1)C2 (racemic) [Example 198, rac-(R)-N-(4-(3,3-dimethylureido)benzyl)-5-(5-(3-hydroxypyrrolidine-1-carbonyl)pyridin-2-yl)-1-isopropyl-4,5,6,7-tetrahydro-1H-pyrazolo[4,3-c]pyridine-3-carboxamide]"
3,0.535,"CC(C)n1nc(C(=O)NCc2ccc(NC(=O)N(C)C)cc2)c2c1CCN(c1ccc(C(=O)N3CCCC3CO)cn1)C2 (racemic) [Example 208, rac-(R)-N-(4-(3,3-dimethylureido)benzyl)-5-(5-(2-(hydroxymethyl)pyrrolidine-1-carbonyl)pyridin-2-yl)-1-isopropyl-4,5,6,7-tetrahydro-1H-pyrazolo[4,3-c]pyridine-3-carboxamide]"
4,1.31,"CC(C)n1nc(C(=O)NCc2ccc(NC(=O)N(C)C)cc2)c2c1CCN(c1ccc(C(=O)N3CCC(C)(O)C3)cn1)C2 (racemic) [Example 219, rac-(R)-N-(4-(3,3-dimethylureido)benzyl)-5-(5-(3-hydroxy-3-methylpyrrolidine-1-carbonyl)pyridin-2-yl)-1-isopropyl-4,5,6,7-tetrahydro-1H-pyrazolo[4,3-c]pyridine-3-carboxamide]"
5,0.336,"CC(C)n1nc(C(=O)NCc2ccc(NC(=O)N(C)C)cc2)c2c1CCN(c1ccc(C(=O)N3CCCC(O)C3)cn1)C2 (racemic) [Example 220, rac-(R)-N-(4-(3,3-dimethylureido)benzyl)-5-(5-(3-hydroxypiperidine-1-carbonyl)pyridin-2-yl)-1-isopropyl-4,5,6,7-tetrahydro-1H-pyrazolo[4,3-c]pyridine-3-carboxamide]"
6,2.09,"CNC(=O)C1CCCN1C(=O)c1ccc(N2CCc3c(c(C(=O)NCc4ccc(NC(=O)N(C)C)cc4)nn3C(C)C)C2)nc1 (racemic) [Example 245, rac-(R)-N-(4-(3,3-dimethylureido)benzyl)-1-isopropyl-5-(5-(2-(methylcarbamoyl)pyrrolidine-1-carbonyl)pyridin-2-yl)-4,5,6,7-tetrahydro-1H-pyrazolo[4,3-c]pyridine-3-carboxamide]"
7,1.41,"CC(C)n1nc(C(=O)NCc2ccc(NC(=O)N(C)C)cc2)c2c1CCN(c1ccc(C(=O)N3C[C@@H]4OC(=O)N[C@@H]4C3)cn1)C2 (racemic) [Example 290, rac-N-(4-(3,3-dimethylureido)benzyl)-1-isopropyl-5-(5-((3aR,6aS)-2-oxohexahydro-2H-pyrrolo[3,4-d]oxazole-5-carbonyl)pyridin-2-yl)-4,5,6,7-tetrahydro-1H-pyrazolo[4,3-c]pyridine-3-carboxamide]"
8,0.606,"CC(C)n1nc(C(=O)NCc2ccc(NC(=O)N(C)C)cc2)c2c1CCN(c1ccc(C(=O)N3C[C@H]4CCO[C@H]4C3)cn1)C2 (racemic) [Example 331, rac-N-(4-(3,3-dimethylureido)benzyl)-5-(5-((3aR,6aR)-hexahydro-2H-furo[2,3-c]pyrrole-5-carbonyl)pyridin-2-yl)-1-isopropyl-4,5,6,7-tetrahydro-1H-pyrazolo[4,3-c]pyridine-3-carboxamide]"
9,2.8,"CO[C@@H]1CN(C(=O)c2ccc(N3CCc4c(c(C(=O)NCc5ccc(NC(=O)N(C)C)cc5)nn4C(C)C)C3)nc2)C[C@H]1OC (racemic) [Example 333, rac-5-(5-((3R,4R)-3,4-dimethoxypyrrolidine-1-carbonyl)pyridin-2-yl)-N-(4-(3,3-dimethylureido)benzyl)-1-isopropyl-4,5,6,7-tetrahydro-1H-pyrazolo[4,3-c]pyridine-3-carboxamide]"
10,0.176,"CC(C)n1nc(C(=O)NCc2ccc(NC(=O)N(C)C)cc2)c2c1CCN(c1ccc(C(=O)N3C[C@@H]4OC(=O)N(C)[C@@H]4C3)cn1)C2 (racemic) [Example 334, rac-N-(4-(3,3-dimethylureido)benzyl)-1-isopropyl-5-(5-((3aR,6aS)-3-methyl-2-oxohexahydro-2H-pyrrolo[3,4-d]oxazole-5-carbonyl)pyridin-2-yl)-4,5,6,7-tetrahydro-1H-pyrazolo[4,3-c]pyridine-3-carboxamide]"
11,0.0004,"CC(C)n1nc(C(=O)NCc2ccc(NC(=O)N3CCN(C)CC3)cc2)c2c1C(C(F)(F)F)CN(c1ccc(C(=O)N(C)C)cn1)C2 (racemic) [Example 701, rac-(R)-5-(5-(dimethylcarbamoyl)pyridin-2-yl)-1-isopropyl-N-(4-(4-methylpiperazine-1-carboxamido)benzyl)-7-(trifluoromethyl)-4,5,6,7-tetrahydro-1H-pyrazolo[4,3-c]pyridine-3-carboxamide]"
12,0.001,"CC(C)n1nc(C(=O)NCc2ccc(NC(=O)N3CCN(C)CC3)cc2)c2c1C(C(F)(F)F)CN(c1ccc(C(=O)N(C)C)cc1)C2 (racemic) [Example 703, rac-(R)-5-(4-(dimethylcarbamoyl)phenyl)-1-isopropyl-N-(4-(4-methylpiperazine-1-carboxamido)benzyl)-7-(trifluoromethyl)-4,5,6,7-tetrahydro-1H-pyrazolo[4,3-c]pyridine-3-carboxamide]"
13,0.001,"CC(C)n1nc(C(=O)NCc2ccc(NC(=O)N3CCNCC3)cc2)c2c1C(C(F)(F)F)CN(c1ccc(C(=O)N(C)C)cc1)C2 (racemic) [Example 704, rac-(R)-5-(4-(dimethylcarbamoyl)phenyl)-1-isopropyl-N-(4-(piperazine-1-carboxamido)benzyl)-7-(trifluoromethyl)-4,5,6,7-tetrahydro-1H-pyrazolo[4,3-c]pyridine-3-carboxamide]"
14,0.001,"COCCC1(N)CCN(C(=O)Nc2ccc(CNC(=O)c3nn(C(C)C)c4c3CN(c3ccc(C(=O)N(C)C)cc3)C[C@@H]4C)cc2)C1 (single isomer, unassigned) [Example 670, (S)-N-(4-((R*)-3-amino-3-(2-methoxyethyl)pyrrolidine-1-carboxamido)benzyl)-5-(4-(dimethylcarbamoyl)phenyl)-1-isopropyl-7-methyl-4,5,6,7-tetrahydro-1H-pyrazolo[4,3-c]pyridine-3-carboxamide]"

# Same assay, conditions: STAT6 NanoLuc luciferase reporter, IL-13 stimulated HaCaT keratinocyte cells; read-out: Reporter EC50
row,EC50 [µM],SMILES
1,0.011,"CC(C)n1nc(C(=O)NCc2ccc(NC(=O)N3C[C@H]4CC[C@@H]3C4)cc2)c2c1CCN(c1ccc(C(=O)N(C)C)cn1)C2 (racemic) [Example 143, rac-N-(4-((1R,4S)-2-azabicyclo[2.2.1]heptane-2-carboxamido)benzyl)-5-(5-(dimethylcarbamoyl)pyridin-2-yl)-1-isopropyl-4,5,6,7-tetrahydro-1H-pyrazolo[4,3-c]pyridine-3-carboxamide]"
2,0.006,"CC(C)n1nc(C(=O)NCc2ccc(NC(=O)N3CCC(C(F)F)C3)cc2)c2c1CCN(c1ccc(C(=O)N(C)C)cn1)C2 (racemic) [Example 145, rac-(R)-N-(4-(3-(difluoromethyl)pyrrolidine-1-carboxamido)benzyl)-5-(5-(dimethylcarbamoyl)pyridin-2-yl)-1-isopropyl-4,5,6,7-tetrahydro-1H-pyrazolo[4,3-c]pyridine-3-carboxamide]"

# — US20250320213A1, “Nitrogen-Containing Heterocyclic Compounds” (Pfizer Inc., priority 2024, published 2025)
